# Test results reported in ChEMBL document CHEMBL1201862, “PubChem BioAssay data set” (2004).
#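 These data come from cells grown in 96-well plates and exposed to compound for 48 hours at five concentrations. GI50: concentration for 50% inhibition of growth.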 Activity calls are given as the source filed them. Rule as the data show it: active = GI50 up to about 1.1 µM and inactive = higher.
# Legend:
# Assay in all cases: growth of human tumour cells (NCI), 48 h
# [1] = system: NCI-H226
# [2] = system: SK-OV-3
# [3] = system: SK-MEL-5
# [4] = system: LOX IMVI
# [5] = system: NCI-H23
# [6] = system: OVCAR-3
# [7] = system: U-251
# [8] = system: DMS-114
# [9] = system: HCT-116
# [10] = system: 786-0
# [11] = system: SNB-19
# [12] = system: UO-31
# [13] = system: SF-268
# [14] = system: MOLT-4
# [15] = system: M19-MEL
# [16] = system: IGROV-1
# [17] = system: SF-295
# [18] = system: HT-29
# [19] = system: CAKI-1
# [20] = system: OVCAR-8
# [21] = system: A549
# [22] = system: UACC-257
# [23] = system: DLD-1
# [24] = system: Malme-3M
# [25] = system: LXFL 529
# [26] = system: RPMI-8226
# [27] = system: HCT-15
# [28] = system: HCC 2998
# [29] = system: DMS-273
# [30] = system: OVCAR-4
# [31] = system: HOP-92
# [32] = system: M14
# [33] = system: ACHN
# [34] = system: K562
# [35] = system: OVCAR-5
# [36] = system: HL-60
# [37] = system: UACC-62
# [38] = system: NCI-H522
# [39] = system: HOP-62
# [40] = system: A498
# [41] = system: SNB-78
# [42] = system: EKVX
# [43] = system: KM-20L2
# [44] = system: XF498
# [45] = system: SF-539
# [46] = system: NCI-H460
# [47] = system: KM12
# [48] = system: RXF 631
# [49] = system: SK-MEL-2
# [50] = system: HOP-18
# [51] = system: SW-620
# [52] = system: CCRF-CEM
# [53] = system: COLO 205
# [54] = system: SN12C
# [55] = system: TK-10
# [56] = system: SK-MEL-28
# [57] = system: RXF 393
# [58] = system: SR
# [59] = system: SNB-75
smiles,measurement,setting,value
N#CC(C#N)=Cc1ccc(C(O)P(=O)(O)O)cc1 (centres undefined),GI50,[1],> 100 µM (inactive)
same,GI50,[2],> 100 µM (inactive)
same,GI50,[3],> 100 µM (inactive)
same,GI50,[4],> 100 µM (inactive)
same,GI50,[5],> 100 µM (inactive)
same,GI50,[6],> 100 µM (inactive)
same,GI50,[7],> 100 µM (inactive)
same,GI50,[8],> 100 µM (inactive)
same,GI50,[9],> 100 µM (inactive)
same,GI50,[10],> 100 µM (inactive)
same,GI50,[11],> 100 µM (inactive)
same,GI50,[12],> 100 µM (inactive)
same,GI50,[13],> 100 µM (inactive)
same,GI50,[14],> 100 µM (inactive)
same,GI50,[15],> 100 µM (inactive)
same,GI50,[16],> 100 µM (inactive)
same,GI50,[17],> 100 µM (inactive)
same,GI50,[18],> 100 µM (inactive)
same,GI50,[19],> 100 µM (inactive)
same,GI50,[20],> 100 µM (inactive)
same,GI50,[21],> 100 µM (inactive)
same,GI50,[22],> 100 µM (inactive)
same,GI50,[23],> 100 µM (inactive)
same,GI50,[24],> 100 µM (inactive)
same,GI50,[25],> 100 µM (inactive)
same,GI50,[26],> 100 µM (inactive)
same,GI50,[27],> 100 µM
same,GI50,[28],> 100 µM (inactive)
same,GI50,[29],> 100 µM (inactive)
same,GI50,[30],> 100 µM (inactive)
same,GI50,[31],39.6 µM (inactive)
same,GI50,[32],> 100 µM (inactive)
same,GI50,[33],> 100 µM (inactive)
same,GI50,[34],69.2 µM (inactive)
same,GI50,[35],> 100 µM (inactive)
same,GI50,[36],93.5 µM (inactive)
same,GI50,[37],> 100 µM (inactive)
same,GI50,[38],56.6 µM (inactive)
same,GI50,[39],> 100 µM (inactive)
same,GI50,[40],> 100 µM (inactive)
same,GI50,[41],> 100 µM (inactive)
same,GI50,[42],> 100 µM (inactive)
same,GI50,[43],> 100 µM (inactive)
same,GI50,[44],> 100 µM (inactive)
same,GI50,[45],> 100 µM (inactive)
same,GI50,[46],> 100 µM (inactive)
same,GI50,[47],> 100 µM (inactive)
same,GI50,[48],> 100 µM (inactive)
same,GI50,[49],> 100 µM (inactive)
same,GI50,[50],> 100 µM (inactive)
same,GI50,[51],> 100 µM (inactive)
same,GI50,[52],71.8 µM (inactive)
same,GI50,[53],> 100 µM (inactive)
same,GI50,[54],> 100 µM (inactive)
same,GI50,[55],> 100 µM (inactive)
same,GI50,[56],> 100 µM (inactive)
COC(=O)/C(=N/O)C(C(=O)OC)C(=O)C(=O)Nc1c(Cl)cc(C)cc1S(=O)(=O)O (centres undefined),GI50,[1],> 100 µM (inactive)
same,GI50,[2],> 100 µM (inactive)
same,GI50,[3],> 100 µM (inactive)
same,GI50,[4],41 µM (inactive)
same,GI50,[5],> 100 µM (inactive)
same,GI50,[6],> 100 µM (inactive)
same,GI50,[7],> 100 µM (inactive)
same,GI50,[8],56.1 µM (inactive)
same,GI50,[9],43.8 µM (inactive)
same,GI50,[57],> 100 µM (inactive)
same,GI50,[58],20.1 µM (inactive)
same,GI50,[10],> 100 µM (inactive)
same,GI50,[11],> 100 µM (inactive)
same,GI50,[12],> 100 µM (inactive)
same,GI50,[13],> 100 µM (inactive)
same,GI50,[14],> 100 µM (inactive)
same,GI50,[15],> 100 µM (inactive)
same,GI50,[16],> 100 µM (inactive)
same,GI50,[17],> 100 µM (inactive)
same,GI50,[18],> 100 µM (inactive)
same,GI50,[19],> 100 µM (inactive)
same,GI50,[20],> 100 µM (inactive)
same,GI50,[21],> 100 µM (inactive)
same,GI50,[22],> 100 µM (inactive)
same,GI50,[23],> 100 µM (inactive)
same,GI50,[24],> 100 µM (inactive)
same,GI50,[25],> 100 µM (inactive)
same,GI50,[26],23.5 µM (inactive)
same,GI50,[27],> 100 µM
same,GI50,[28],> 100 µM (inactive)
same,GI50,[29],18 µM (inactive)
same,GI50,[30],> 100 µM (inactive)
same,GI50,[31],> 100 µM (inactive)
same,GI50,[32],> 100 µM (inactive)
same,GI50,[33],> 100 µM (inactive)
same,GI50,[34],67 µM (inactive)
same,GI50,[35],> 100 µM (inactive)
same,GI50,[36],> 100 µM (inactive)
same,GI50,[37],> 100 µM (inactive)
same,GI50,[38],33.5 µM (inactive)
same,GI50,[39],> 100 µM (inactive)
same,GI50,[40],> 100 µM (inactive)
same,GI50,[41],> 100 µM (inactive)
same,GI50,[42],> 100 µM (inactive)
same,GI50,[43],> 100 µM (inactive)
same,GI50,[44],> 100 µM (inactive)
same,GI50,[45],> 100 µM (inactive)
same,GI50,[46],41.5 µM (inactive)
same,GI50,[47],> 100 µM (inactive)
same,GI50,[48],> 100 µM (inactive)
same,GI50,[49],> 100 µM (inactive)
same,GI50,[50],> 100 µM (inactive)
same,GI50,[52],42.8 µM (inactive)
same,GI50,[59],> 100 µM (inactive)
same,GI50,[53],> 100 µM (inactive)
same,GI50,[54],> 100 µM (inactive)
same,GI50,[55],> 100 µM (inactive)
same,GI50,[56],> 100 µM (inactive)
